“Also recorded” adds a separate entry of the source.

Assay [1] is described as follows: Activity of vitrified insulin after reconstitution. The following applies: reconstitution by contact with water or a body fluid.
Assay [2] relates to C57/BL6J mouse keratinocytes. The assay is described as follows: Scratch wound healing assay. It is filed as cell-based. Here is the method:
(§1) Two established cell culture models of transwell migration and a scratch wound healing model with freshly isolated C57/BL6J mouse keratinocytes were used. First, the keratinocyte cultures were established by enzymatic separation of keratinocytes from the epidermal layer of mouse skin using a dispase (for isolating epidermal later of skin) and trypsin (for isolating keratinocytes from the epidermis) under gentle agitation. The collected cells were grown in SFM-keratinocyte medium (Life Technologies).
To assess the ability of keratinocytes to migrate and heal wound gaps, scratch wounds of uniform dimensions were created across keratinocyte monolayers and the cultures were left for healing in the presence or absence of VEGF or VEGF inhibitor.

Assay [3] deals with C57/BL6J mouse keratinocytes. The assay is described as follows: Transwell migration assay. It is filed as cell-based. As to the method:
as §1
To assess the ability of keratinocytes to migrate under the influence of VEGF, cells were trypsinized, collected by centrifugation and added to the upper chamber of transwell inserts while the No VEGF control or VEGF or VEGF+VEGF inhibitor were added to serum free medium placed in the lower chamber. The cells were allowed to migrate under normal growth conditions. At the end of 24 h, the cells that migrated under the influence of vehicle control or VEGF in lower chamber were counted visually and expressed as percent cell migration.

Assay [4] deals with TNFα, COL1A1, DSTN, TGFβ, IL-6 and COL3A1 expression in dermal fibroblasts. In words: LPS-induced scar-forming gene expression assay of dermal fibroblasts (qPCR). The class given is cell-based. Conditions: LPS 500 ng/ml 3 days; VEGF 10 ng/ml; + control ideal storage, others exposed at 55° C. for 15 days. As to the method:
Dermal fibroblasts were treated with lipopolysaccharide LPS (500 ng/ml) or vehicle PBS (No LPS control) for 3 days in the presence of vitrified VEGF (10 ng/ml) that was tested for stability against exposure to 55° C. from days 1-15.
LPS-treated cells exposed to VEGF (10 ng/ml) that underwent thermo-destabilization in the absence of vitrification served as negative control and the cells treated with VEGF that was subjected to neither vitrification nor destabilization served as positive control.
LPS-induced scar-forming gene expression profiles of dermal fibroblasts namely TNFα, COL1A1, DSTN, TGFβ, IL-6 and COL3A1 were measured by quantitative real-time PCR (qPCR), normalized to the expression of β-actin and expressed relative to the levels measured in No LPS control.

Turning to “vitrified insulin: insulin vitrified by the processes described, e.g. electrospun with pullulan and trehalose”, in assay [1], the activity after reconstitution result is given as “indistinguishable from fresh insulin”.

“vascular endothelial growth factor [VEGF]”: the “number of cells that migrated into the scratch wound area” value in assay [2] (n=3) was “dramatic induction of keratinocyte migration”. Besides, the “keratinocyte scratch wound healing” value in assay [2] (scratch wounds on confluent keratinocyte monolayers) is “promote a dynamic healing in the scratch wound area; also recorded: stimulates migration of keratinocytes”. Further, the “migration of keratinocytes, transwell” value in assay [3] (24 h, serum free medium in lower chamber) is “stimulates migration of keratinocytes”. In addition, the “quantification of cell numbers in the transwell migration assay” value in assay [3] (n=3) is given as “dramatic induction of keratinocyte migration”. In assay [4], the “LPS-induced scar-forming gene expression” value was “strong suppressive effect on scar forming genes”.

For the origin of these results see patent US12458538B2, “Functional wound healing dressings” (Ambient Biosciences, Inc., priority 2018, dated 2025).
